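Step 1: Grow cells in 96-well plates. Step 2: Expose to compound for 48 hours at 5 concentrations. Step 3: Interpolate endpoints linearly; if unreached, use highest concentration. Here, GI50 denotes the concentration required for 50% inhibition of growth. Definition used: TGI = concentration required for complete inhibition of growth.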
Columns and labels:
Assay in all cases: NCI tumour cell line growth inhibition, 48 h
[1] = test system: EKVX NSCLC
[2] = test system: NCI-H23 lung
[3] = test system: OVCAR-4 ovarian
[4] = test system: SF-295 CNS
[5] = test system: BT-549 breast
[6] = test system: SK-OV-3 ovarian
[7] = test system: K-562 leukemia
[8] = test system: LOX IMVI melanoma
[9] = test system: SF-268 CNS
[10] = test system: MOLT-4 leukemia

| SMILES | GI50 [1] [µM] | TGI [1] [µM] | GI50 [2] [µM] | TGI [2] [µM] | GI50 [3] [µM] | TGI [3] [µM] | GI50 [4] [µM] | TGI [4] [µM] | GI50 [5] [µM] | TGI [5] [µM] | GI50 [6] [µM] | TGI [6] [µM] | GI50 [7] [µM] | TGI [7] [µM] | GI50 [8] [µM] | TGI [8] [µM] | GI50 [9] [µM] | TGI [9] [µM] | GI50 [10] [µM] | TGI [10] [µM] |
| --- | --- | --- | --- | --- | --- | --- | --- | --- | --- | --- | --- | --- | --- | --- | --- | --- | --- | --- | --- | --- |
| O=S(=O)(CCN1CCOCC1)Nc1cc(-c2ccc3ncnc(Nc4ccc(F)c(Cl)c4)c3c2)cnc1Cl | 0.282 | 3.64 | 1.02 | > 100 | 1.66 | 22.5 | 0.624 | 4.29 | 0.254 | 2.59 | 0.286 | 1.94 | 3.27 | > 100 | 0.414 | 3.15 | 0.407 | 27.4 | – | – |
| COc1ccc(C#Cc2ccc(=O)oc2-c2cc(OC)c(OC)c(OC)c2)cc1O | 22.2 | > 100 | 10.7 | > 100 | 20.3 | > 100 | 4.49 | > 45.2 | 7.37 | > 64.2 | 6.58 | > 83.1 | 0.505 | > 100 | 12.3 | > 100 | 7.23 | > 90.8 | 6.3 | > 100 |
| O=C(CC1(O)C(=O)N(Cc2ccccc2)c2ccc(Cl)cc21)c1ccc(C(=O)NCC2CCC3(CC2)OOC2(CCCCC2)OO3)cc1 (configuration not stated) | 0.306 | 1.08 | 0.204 | 0.477 | 2.45 | 11.5 | 0.57 | 1.34 | 2.42 | 15 | 3.48 | > 21.1 | 1.57 | > 100 | 0.0573 | 0.197 | 1.4 | 3.67 | 1.59 | 4.56 |
| Cn1c(=O)c(Oc2ccc(F)cc2F)cc2cnc(NC(C)(C)CO)nc21 | – | – | > 25 | > 25 | > 25 | > 25 | > 25 | > 25 | > 21.4 | > 25 | > 25 | > 25 | > 25 | > 25 | > 25 | > 25 | > 25 | > 25 | > 25 | > 25 |
| COC(=O)C1=C(O)[C@H](C(=O)OC)C2(O)C(C(=O)OC)[C@H](c3ccc(OC(=O)C(C)c4ccccc4)cc3)C[C@@H]1[C@@H]2C(=O)OC (some centres not stated) | 32.5 | > 50 | 12.5 | 29.2 | 21.5 | > 50 | 16.1 | > 50 | 19.3 | > 50 | 33.3 | > 50 | 19.4 | > 50 | 6.85 | 16.2 | 17.2 | > 50 | – | – |
| CC(=O)Nc1cc2cc(N)ccc2oc1=O | – | > 100 | – | > 100 | – | > 100 | – | > 100 | – | > 100 | – | – | – | > 100 | – | > 100 | – | > 100 | – | > 100 |
| N#Cc1c(NCc2ccccc2)nc(NCc2ccccc2)c(C#N)c1-c1ccc(O)cc1 | 48.5 | > 100 | 45.3 | > 100 | 27.7 | > 100 | 27.1 | > 100 | 32.8 | > 100 | 34.5 | > 100 | – | – | 16.7 | 41.4 | 27.3 | > 100 | 20.4 | > 100 |
| COC1C(O)CC(OC2CC(OC3CC(O[C@@H]4C(=O)c5c(cc6cc(OC7CC(OC8CC(O)C(O)C(C)O8)C(O)C(C)O7)c(C)c(O)c6c5O)CC4[C@H](OC)C(=O)O)OC(C)C3O)OC(C)C2O)OC1C (some centres not stated) | 2.31 | > 33.3 | 1.63 | 17.2 | 4.9 | > 33.3 | 0.97 | > 33.3 | 1.8 | 31.8 | 2.24 | > 33.3 | 1.96 | > 33.3 | 0.983 | 5.07 | 2.64 | > 33.3 | 2.08 | > 33.3 |
| O=c1[nH]c2ccccc2c2nc3ccccc3n12 | – | > 100 | – | > 100 | – | 14 | – | > 100 | – | > 100 | – | 49.7 | – | > 100 | – | > 100 | – | > 100 | – | > 100 |
| BrC(Br)=C1C(=C(Br)Br)C(Br)C1Br (configuration not stated) | – | 4.98 | – | 1.46 | – | 6.18 | – | 2.32 | – | 6.93 | – | 12.7 | – | 1.19 | – | 1.03 | – | 1.51 | – | – |
| CC(C)N1CCN(c2ccncc2S(=O)(=O)N2CCCCC2)CC1 | – | > 100 | – | > 100 | – | > 100 | – | > 100 | – | > 100 | – | > 100 | – | > 100 | – | > 100 | – | > 100 | – | – |
| COc1ccc(/C=C2\CN(C(=O)C(Cl)Cl)C/C(=C\c3ccc(OC)cc3)C2=O)cc1 | – | – | 1.56 | 4 | 2.32 | > 100 | – | – | 2.19 | 8.13 | 4.2 | > 100 | 0.343 | > 100 | 0.251 | 0.766 | 2.95 | > 100 | 1.78 | > 100 |
| COc1ccc2c(c1)c(-c1nc(-c3c[nH]c4ncccc34)cs1)cn2CCCN1CCCCC1 | 1.44 | 2.9 | 1.77 | 3.52 | 1.83 | 4.35 | – | – | 3.28 | 12.7 | 1.73 | 3.27 | 1.88 | 4.16 | 1.67 | 3.18 | 1.52 | 3.17 | – | – |
| Nc1c(C(=O)Nc2ccccc2)sc2nc3c(cc12)CCCCC3 | – | – | 0.874 | 97.3 | – | – | 0.366 | 4.04 | 0.819 | 20.1 | 0.633 | 10.8 | – | – | 0.907 | > 100 | 1.1 | 54.4 | 2.67 | > 100 |
| O=c1c2ccc(S(=O)(=O)c3ccc4c(=O)n5c6ccccc6nc5c5cccc3c45)c3cccc(c32)c2nc3ccccc3n12 | – | > 100 | – | > 100 | – | – | – | 53.2 | – | 50.5 | – | 31.6 | – | – | – | > 100 | – | > 100 | – | – |
